# Test results published in patent publication US9981950B2, “Triazoles as NR2B receptor inhibitors” (Janssen Pharmaceuticals, Inc., priority 2014, dated 2018).
# How the values were obtained:
# [1] = target: T1, rat NR1/NR2B receptor (Rattus norvegicus (Rat), UniProt P35439+Q00960); test: NR2B binding assay: inhibition of specific [3H]-Ifenprodil binding to the rat NR1/NR2B receptor; conditions: rat brain membranes, Hill-plot 2-parameter-model
# Procedure: Inhibition of Specific Binding to the Rat NR1/NR2B Receptor
# Male Wistar rats (180 to 200 g) were killed by suffocation in a CO2 chamber for two minutes. Whole brains without cerebellum were removed and dissected on ice, placed into closed vials and stored at −70° C.
# Membrane fractions were prepared and tested using standard techniques. At the time of the assay, 1 g of the brains was placed into 25 ml of 50 mM Tris/10 mM EDTA buffer, pH 7.1, (25 vol. per g of original tissue) and homogenized for 30 sec at 20000 rpm with an Ultraturrax T25 (Jahnke & Kunkel, IKA-Labortechnik, Staufen, Germany). The homogenate was centrifuged at 4° C. for 10 min at 48000 g (OPTIMA L-70, Beckman, Palo Alto, Calif. 94304, USA).
# The supernatant was discarded and the pellet was homogenized on ice for 30 sec at 20000 rpm with an Ultraturrax and again centrifuged at 48000 g for 30 minutes at 4° C. The resulted pellet was resuspended in 25 ml of 50 mM Tris/10 mM EDTA buffer, homogenized for 30 sec with an Ultraturrax, aliquoted, frozen at −70° C. and stored until use.
# After thawing on the day of the assay, a 5 ml membrane aliquot was centrifuged at 48000 g for 30 min at 4° C. The pellet was resuspended in 5 ml of 5 mM Tris/1 mM EDTA buffer, pH 7.4, homogenized for 30 sec at 20000 rpm with an Ultraturrax and centrifuged at 48000 g for 30 min at 4° C. This was repeated twice. The final pellet was homogenized in 5 ml of 5 mM Tris/l mM EDTA buffer at 4° C. with an Ultraturrax and used for the Ifenprodil-binding assay as described in the following.
# Nonspecific binding was estimated in the presence of […] CP101.606. The samples were incubated for 60 min. at 4° C.
# The incubation was terminated by filtration of the membrane preparations using Filtermat B (Pharmacia, Uppsala Sweden) and a Micro Cell Harvester (Skatron, Lier, Norway). The Filtermat B had been presoaked with 1% polyethylene imine and carefully washed with 50 mM Tris/HCl-buffer pH 7.7 after the filtration to separate free and bound radioactivity.
# The optimal amount of membrane preparation in the assay had been determined and optimized for each membrane preparation separately before the test.
# For pipetting of the incubation mixture we routinely used the robot Biomek2000 (Fa. Beckman).
# For determination of IC50 values the Hill-plot, 2-parameter-model was used.
# [2] = target: T1, rat NR1/NR2B receptor; test: RRNR2BB: inhibition of specific binding to the rat NR1/NR2B receptor; conditions: [3H]-Ifenprodil binding, rat brain membranes, Hill-plot 2-parameter-model
# Outline: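 Washed membranes from male Wistar rat forebrain (whole brain minus cerebellum) in 5 mM Tris/1 mM EDTA pH 7.4 used in ifenprodil-site binding, 60 min at 4° C. Nonspecific binding defined with […] CP101.606; bound separated by filtration on PEI-soaked filters. IC50 from Hill plot, 2-parameter model.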
# [3] = target: hERG-receptor (Homo sapiens (Human), UniProt Q12809); test: HERGBD: inhibition of specific 3H-Dofetilide binding to the hERG-receptor; conditions: HEK cell membranes with human ERG, Hill-plot 2-parameter-model
# Outline: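 Membranes from HEK cells stably expressing human ERG incubated 90 min at RT with 1.5 nmol/l 3H-dofetilide in 20 mM HEPES/0.1 mM KCl pH 7.2, inhibitor in 1% DMSO. Nonspecific binding with […] dofetilide; bound ligand separated by filtration and scintillation counted.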
# T1 sequence (Q00960 27-1482, other chains not shown): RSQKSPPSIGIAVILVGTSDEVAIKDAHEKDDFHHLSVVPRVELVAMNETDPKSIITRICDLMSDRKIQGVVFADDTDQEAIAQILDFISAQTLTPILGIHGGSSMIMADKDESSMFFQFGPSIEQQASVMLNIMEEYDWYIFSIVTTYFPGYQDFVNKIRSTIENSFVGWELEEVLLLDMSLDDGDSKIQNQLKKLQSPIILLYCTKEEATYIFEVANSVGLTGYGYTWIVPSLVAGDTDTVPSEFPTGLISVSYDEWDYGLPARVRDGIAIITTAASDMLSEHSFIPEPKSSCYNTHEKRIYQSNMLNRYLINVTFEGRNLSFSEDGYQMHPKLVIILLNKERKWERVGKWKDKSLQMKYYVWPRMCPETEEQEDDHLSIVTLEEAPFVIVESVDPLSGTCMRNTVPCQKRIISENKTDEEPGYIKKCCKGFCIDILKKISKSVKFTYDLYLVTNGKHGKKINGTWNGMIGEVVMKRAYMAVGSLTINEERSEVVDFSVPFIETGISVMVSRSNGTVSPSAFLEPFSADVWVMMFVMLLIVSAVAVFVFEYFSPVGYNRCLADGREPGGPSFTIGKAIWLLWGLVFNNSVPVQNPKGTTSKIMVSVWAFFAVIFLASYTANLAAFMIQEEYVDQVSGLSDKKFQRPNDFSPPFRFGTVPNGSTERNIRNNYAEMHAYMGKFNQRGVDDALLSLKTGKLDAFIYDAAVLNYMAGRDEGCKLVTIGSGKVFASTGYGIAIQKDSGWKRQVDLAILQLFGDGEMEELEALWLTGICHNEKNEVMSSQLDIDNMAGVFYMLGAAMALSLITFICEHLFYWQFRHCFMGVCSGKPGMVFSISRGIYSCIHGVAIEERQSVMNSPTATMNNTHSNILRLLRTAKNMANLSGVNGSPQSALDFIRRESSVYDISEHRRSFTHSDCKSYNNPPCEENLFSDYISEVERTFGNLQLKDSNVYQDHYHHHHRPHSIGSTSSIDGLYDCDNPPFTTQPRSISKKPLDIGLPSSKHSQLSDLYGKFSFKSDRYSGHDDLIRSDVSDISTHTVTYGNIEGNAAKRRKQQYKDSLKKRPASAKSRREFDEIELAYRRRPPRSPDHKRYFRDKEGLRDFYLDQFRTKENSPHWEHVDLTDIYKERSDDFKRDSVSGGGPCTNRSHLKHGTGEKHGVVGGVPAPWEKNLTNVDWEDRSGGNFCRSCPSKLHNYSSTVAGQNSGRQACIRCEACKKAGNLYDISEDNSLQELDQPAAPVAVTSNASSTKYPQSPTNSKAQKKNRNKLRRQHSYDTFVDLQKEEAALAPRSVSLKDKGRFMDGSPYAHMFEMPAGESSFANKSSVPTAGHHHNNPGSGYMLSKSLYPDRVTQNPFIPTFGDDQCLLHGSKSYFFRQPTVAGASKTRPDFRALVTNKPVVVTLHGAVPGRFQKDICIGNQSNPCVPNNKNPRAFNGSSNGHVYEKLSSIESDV
# hERG-receptor, sequence (Q12809 whole entry): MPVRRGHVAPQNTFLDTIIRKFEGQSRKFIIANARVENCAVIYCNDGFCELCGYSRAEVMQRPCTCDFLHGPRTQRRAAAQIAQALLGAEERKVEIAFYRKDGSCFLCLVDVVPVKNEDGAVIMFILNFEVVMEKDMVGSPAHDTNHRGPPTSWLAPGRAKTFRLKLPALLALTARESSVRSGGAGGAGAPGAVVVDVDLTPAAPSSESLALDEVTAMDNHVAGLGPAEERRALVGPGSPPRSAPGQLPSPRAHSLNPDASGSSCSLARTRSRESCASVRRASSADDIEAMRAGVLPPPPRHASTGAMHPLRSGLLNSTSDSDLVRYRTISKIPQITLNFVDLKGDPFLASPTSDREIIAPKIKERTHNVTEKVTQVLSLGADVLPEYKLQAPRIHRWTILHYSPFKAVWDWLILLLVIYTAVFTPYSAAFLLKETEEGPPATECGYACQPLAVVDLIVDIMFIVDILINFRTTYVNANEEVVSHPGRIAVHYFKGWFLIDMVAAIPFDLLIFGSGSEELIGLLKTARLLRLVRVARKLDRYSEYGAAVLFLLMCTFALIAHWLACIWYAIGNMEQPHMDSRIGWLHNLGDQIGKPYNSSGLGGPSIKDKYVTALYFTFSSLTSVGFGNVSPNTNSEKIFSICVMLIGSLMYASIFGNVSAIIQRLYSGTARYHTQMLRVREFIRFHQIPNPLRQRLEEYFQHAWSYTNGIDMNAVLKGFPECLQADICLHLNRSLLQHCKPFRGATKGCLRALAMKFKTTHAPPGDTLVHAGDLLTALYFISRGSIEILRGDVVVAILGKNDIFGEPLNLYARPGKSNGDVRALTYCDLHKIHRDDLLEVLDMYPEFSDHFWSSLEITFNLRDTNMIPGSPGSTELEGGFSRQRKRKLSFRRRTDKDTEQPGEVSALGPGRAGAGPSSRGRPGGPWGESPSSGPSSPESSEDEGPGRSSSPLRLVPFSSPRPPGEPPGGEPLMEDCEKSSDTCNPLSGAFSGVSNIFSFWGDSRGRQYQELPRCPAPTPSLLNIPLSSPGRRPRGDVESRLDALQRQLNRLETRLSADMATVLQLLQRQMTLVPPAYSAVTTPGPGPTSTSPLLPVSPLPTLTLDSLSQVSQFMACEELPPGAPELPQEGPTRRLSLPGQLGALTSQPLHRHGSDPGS
SMILES,IC50 [1],IC50 [2],IC50 [3]
"Cc1nccn1Cc1cn(-c2ccc(Cl)c(C(F)(F)F)c2)nn1 [Example 56, 1-(4-Chloro-3-trifluoromethyl-phenyl)-4-(2-methyl-imidazol-1-ylmethyl)-1H-[1,2,3]triazole]",11.9 nM,11.9 nM,6460 nM
"FC(F)(F)c1cccc(-n2cc(Cn3ccnc3C3CC3)nn2)c1 [Example 68, 4-(2-Cyclopropyl-imidazol-1-ylmethyl)-1-(3-trifluoromethyl-phenyl)-1H-[1,2,3]triazole]",91.6 nM,91.6 nM,5120 nM
"OCCc1nccn1Cc1cn(-c2ccc(F)c(C(F)F)c2)nn1 [Example 88, 1-(3-Difluoromethyl-4-fluoro-phenyl)-4-[2-(2-hydroxy-ethyl)-imidazol-1-ylmethyl]-1H-[1,2,3]triazole]",14.5 nM,14.5 nM,93400 nM
"COc1cc(F)ccc1-n1cc(Cn2ccnc2C2CC2)nn1 [Example 62, 4-(2-Cyclopropyl-imidazol-1-ylmethyl)-1-(4-fluoro-2-methoxy-phenyl)-1H-[1,2,3]triazole]",3320 nM,3320 nM,45900 nM
"CCc1nccn1Cc1cn(-c2ccc(Cl)c(Cl)c2)nn1 [Example 33, 1-(3,4-Dichloro-phenyl)-4-(2-ethyl-imidazol-1-ylmethyl)-1H-[1,2,3]triazole]",4.65 nM,4.65 nM,2230 nM
"Cc1cc(-n2cc(Cn3ccnc3CCO)nn2)ccc1Cl [Example 74, 1-(4-Chloro-3-methyl-phenyl)-4-[2-(2-hydroxy-ethyl)-imidazol-1-ylmethyl]-1H-[1,2,3]triazole]",6.9 nM,6.9 nM,33800 nM
"CCCCc1nccn1Cc1cn(-c2ccc(F)c(Cl)c2)nn1 [Example 45, 4-(2-Butyl-imidazol-1-ylmethyl)-1-(3-chloro-4-fluoro-phenyl)-1H-[1,2,3]triazole]",7.68 nM,7.68 nM,539 nM
"FCCc1nccn1Cc1cn(-c2ccc(Cl)c(OC(F)F)c2)nn1 [Example 99, 1-(4-Chloro-3-difluoromethoxy-phenyl)-4-[2-(2-fluoro-ethyl)-imidazol-1-ylmethyl]-1H-[1,2,3]triazole]",6.02 nM,6.02 nM,23800 nM
"OCCc1nccn1Cc1cn(-c2ccc(Cl)c(Cl)c2)nn1 [Example 40, 4-[2-(2-Hydroxyethyl)-imidazol-1-ylmethyl]-1-(3,4-dichloro-phenyl)-1H-[1,2,3]triazole]",17.2 nM,17.2 nM,14700 nM
"Clc1ccc(-n2cc(Cn3ccnc3C3CC3)nn2)cc1Cl [Example 36, 4-(2-Cyclopropyl-imidazol-1-ylmethyl)-1-(3,4-dichloro-phenyl)-1H-[1,2,3]triazole]",17.9 nM,17.9 nM,1160 nM
"OCc1nccn1Cc1cn(-c2ccc(Cl)cc2)nn1 [Example 28, 4-(2-Hydroxymethyl-imidazol-1-ylmethyl)-1-(4-chloro-phenyl)-1H-[1,2,3]triazole]",573 nM,573 nM,11200 nM
"FC(F)Oc1cc(-n2cc(Cn3ccnc3C3CC3)nn2)ccc1Cl [Example 94, 1-(4-Chloro-3-difluoromethoxy-phenyl)-4-(2-cyclopropyl-imidazol-1-ylmethyl)-1H-[1,2,3]triazole]",3.91 nM,3.91 nM,3020 nM
"CCc1nccn1Cc1cn(-c2ccc(Cl)c(C)c2)nn1 [Example 70, 1-(4-Chloro-3-methyl-phenyl)-4-(2-ethyl-imidazol-1-ylmethyl)-1H-[1,2,3]triazole]",1.84 nM,1.84 nM,3920 nM
"CC(C)c1nccn1Cc1cn(-c2ccc(Cl)c(Cl)c2)nn1 [Example 35, 1-(3,4-Dichloro-phenyl)-4-(2-isopropyl-imidazol-1-ylmethyl)-1H-[1,2,3]triazole]",7.4 nM,7.4 nM,5880 nM
"Clc1ccc(-n2cc(Cn3ccnc3C3CCC3)nn2)cc1Cl [Example 39, 4-(2-Cyclobutyl-imidazol-1-ylmethyl)-1-(3,4-dichloro-phenyl)-1H-[1,2,3]triazole]",7.58 nM,7.58 nM,1740 nM
"CCCCc1nccn1Cc1cn(-c2ccc(Cl)c(Cl)c2)nn1 [Example 37, 4-(2-Butyl-imidazol-1-ylmethyl)-1-(3,4-dichloro-phenyl)-1H-[1,2,3]triazole]",6.84 nM,6.84 nM,585 nM
"Cc1nccn1Cc1cn(-c2ccc(Cl)c(Cl)c2)nn1 [Example 32, 1-(3,4-Dichloro-phenyl)-4-(2-methyl-imidazol-1-ylmethyl)-1H-[1,2,3]triazole]",4.92 nM,4.92 nM,3930 nM
"Cc1nccn1Cc1cn(-c2ccc(F)c(C(C)(F)F)c2)nn1 [Example 105, 1-[3-(1,1-Difluoro-ethyl)-4-fluoro-phenyl]-4-(2-methyl-imidazol-1-ylmethyl)-1H-[1,2,3]triazole]",4.05 nM,4.05 nM,73100 nM
"Cc1nccn1Cc1cn(-c2cccc(OC(F)(F)F)c2)nn1 [Example 57, 4-(2-Methyl-imidazol-1-ylmethyl)-1-(3-trifluoromethoxy-phenyl)-1H-[1,2,3]triazole]",7.21 nM,7.21 nM,8590 nM
"OCCc1nccn1Cn1cc(-c2ccc(S(F)(F)(F)(F)F)cc2)nn1 [Example 118, 2-(1-((1-(4-(pentafluoro-l6-sulfanyl)phenyl)-1H-1,2,3-triazol-4-yl)methyl)-1H-imidazol-2-yl)ethan-1-ol]",263 nM,263 nM,12300 nM
"CS(=O)(=O)c1cccc(-n2cc(Cn3ccnc3CCF)nn2)c1 [Example 80, 4-[2-(2-Fluoro-ethyl)-imidazol-1-ylmethyl]-1-(3-methanesulfonyl-phenyl)-1H-[1,2,3]triazole]",2680 nM,2680 nM,> 100000 nM
"Cc1cc(-n2cc(Cn3ccnc3CCF)nn2)ccc1Cl [Example 75, 1-(4-Chloro-3-methyl-phenyl)-4-[2-(2-fluoro-ethyl)-imidazol-1-ylmethyl]-1H-[1,2,3]triazole]",13.5 nM,13.5 nM,32800 nM
